Experimental data: US12344600B2, “c-Myc mRNA translation modulators and uses thereof in the treatment of cancer” (Anima Biotech Inc., priority 2022, dated 2025)

Test system: c-Myc
Experiment: c-Myc immunofluorescence assay
Format: cell-based, human
Conditions: A549 cells, 24 hours, anti-c-Myc immunofluorescence
In short: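 Read-out is imaged c-Myc immunofluorescence, nucleus-segmented, in A549 lung carcinoma cells exposed to compound dose series for 24 h after 48 h growth. Fixation 4% paraformaldehyde, Triton permeabilization, antibody staining at room temperature; EC50 from logistic fit of signal versus concentration.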

Row | Structure (SMILES) | Myc Efficacy (−LogEC50)
1 | COc1ccc(-c2noc(N3CCC(C(=O)NCC4CCN(CCC(C)C)C4)CC3)n2)cc1 (stereo not shown) [Compound 411, N-((1-isopentylpyrrolidin-3-yl)methyl)-1-(3-(4-methoxyphenyl)-1,2,4-oxadiazol-5-yl)piperidine-4-carboxamide] | ++ (++ ≥5 and <6)
2 | COc1ccc(-c2noc(N3CCC(C(=O)NCC4CCN(C[C@@H]5CCCNC5)C4)CC3)n2)cc1 (stereo partly drawn) [Compound 412, 1-(3-(4-methoxyphenyl)-1,2,4-oxadiazol-5-yl)-N-((1-(((R)-piperidin-3-yl)methyl)pyrrolidin-3-yl)methyl)piperidine-4-carboxamide] | − (− ≤3)
3 | COc1ccc(-c2noc(N3CCC(C(=O)NCC4CCN(C[C@H]5CCN5)C4)CC3)n2)cc1 (stereo partly drawn) [Compound 413, N-((1-(((R)-azetidin-2-yl)methyl)pyrrolidin-3-yl)methyl)-1-(3-(4-methoxyphenyl)-1,2,4-oxadiazol-5-yl)piperidine-4-carboxamide] | − (− ≤3)
4 | COc1ccc(-c2noc(N3CCC(C(=O)NCC4CCN(C[C@H]5CCCCN5C)C4)CC3)n2)cc1 (stereo partly drawn) [Compound 414, 1-(3-(4-methoxyphenyl)-1,2,4-oxadiazol-5-yl)-N-((1-(((R)-1-methylpiperidin-2-yl)methyl)pyrrolidin-3-yl)methyl)piperidine-4-carboxamide] | + (+ >3 and <5)
5 | COc1ccc(-c2noc(N3CCC(C(=O)NCC4CCN(C[C@H]5CCCCN5)C4)CC3)n2)cc1 (stereo partly drawn) [Compound 415, 1-(3-(4-methoxyphenyl)-1,2,4-oxadiazol-5-yl)-N-((1-(((R)-piperidin-2-yl)methyl)pyrrolidin-3-yl)methyl)piperidine-4-carboxamide] | + (+ >3 and <5)
6 | COc1ccc(-c2noc(N3CCC(C(=O)NCC4CCN(C(C)C5CCOCC5)C4)CC3)n2)cc1 (stereo not shown) [Compound 416, 1-(3-(4-methoxyphenyl)-1,2,4-oxadiazol-5-yl)-N-((1-(1-(tetrahydro-2H-pyran-4-yl)ethyl)pyrrolidin-3-yl)methyl)piperidine-4-carboxamide] | + (+ >3 and <5)
7 | COc1ccc(-c2noc(N3CCN(C(=O)NCc4cc5ccccc5[nH]4)CC3)n2)cc1 [Compound 417, N-((1H-indol-2-yl)methyl)-4-(3-(4-methoxyphenyl)-1,2,4-oxadiazol-5-yl)piperazine-1-carboxamide] | ++ (++ ≥5 and <6)
8 | COc1ccc(-c2noc(N3CCC(C(=O)NCc4cc5cccnc5[nH]4)CC3)n2)cc1 [Compound 418, N-((1H-pyrrolo[2,3-b]pyridin-2-yl)methyl)-1-(3-(4-methoxyphenyl)-1,2,4-oxadiazol-5-yl)piperidine-4-carboxamide] | + (+ >3 and <5)
9 | COc1ccc(-c2noc(N3CCC(C(=O)NCc4nc5ccccc5[nH]4)CC3)n2)cc1 [Compound 419, N-((1H-benzo[d]imidazol-2-yl)methyl)-1-(3-(4-methoxyphenyl)-1,2,4-oxadiazol-5-yl)piperidine-4-carboxamide] | ++ (++ ≥5 and <6)
10 | COc1ccc(-c2noc(N3CCC(C(=O)NCc4nc5ccccc5o4)CC3)n2)cc1 [Compound 420, N-(benzo[d]oxazol-2-ylmethyl)-1-(3-(4-methoxyphenyl)-1,2,4-oxadiazol-5-yl)piperidine-4-carboxamide] | + (+ >3 and <5)
11 | COc1ccc(-c2noc(N3CCN(C(=O)NCC4CCN(CC5CCCCC5)C4)CC3)n2)cc1 (stereo not shown) [Compound 421, N-((1-(cyclohexylmethyl)pyrrolidin-3-yl)methyl)-4-(3-(4-methoxyphenyl)-1,2,4-oxadiazol-5-yl)piperazine-1-carboxamide] | +++ (+++ ≥6)
12 | COc1ccc(-c2noc(N3CCC(C(=O)NCC4CCN(C[C@H]5CCCN(C)C5)C4)CC3)n2)cc1 (stereo partly drawn) [Compound 422, 1-(3-(4-methoxyphenyl)-1,2,4-oxadiazol-5-yl)-N-((1-(((S)-1-methylpiperidin-3-yl)methyl)pyrrolidin-3-yl)methyl)piperidine-4-carboxamide] | ++ (++ ≥5 and <6)
13 | O=C(NCCCN1CCC(Oc2ccccc2)CC1)N1CCN(c2nc(-c3ccc(OC(F)(F)F)cc3)no2)CC1 [Compound 428, N-(3-(4-phenoxypiperidin-1-yl)propyl)-4-(3-(4-(trifluoromethoxy)phenyl)-1,2,4-oxadiazol-5-yl)piperazine-1-carboxamide] | +++ (+++ ≥6)
14 | O=C(NCCCN1CCC(Cc2ccccc2F)CC1)N1CCN(c2nc(-c3ccc(OC(F)(F)F)cc3)no2)CC1 [Compound 429, N-(3-(4-(2-fluorobenzyl)piperidin-1-yl)propyl)-4-(3-(4-(trifluoromethoxy)phenyl)-1,2,4-oxadiazol-5-yl)piperazine-1-carboxamide] | +++ (+++ ≥6)
15 | O=C(NCCCN1CCC(Cc2ccccn2)CC1)N1CCN(c2nc(-c3ccc(F)cc3)no2)CC1 [Compound 430, 4-(3-(4-fluorophenyl)-1,2,4-oxadiazol-5-yl)-N-(3-(4-(pyridin-2-ylmethyl)piperidin-1-yl)propyl)piperazine-1-carboxamide] | +++ (+++ ≥6)
16 | COc1ccc(-c2noc(N3CCC(C(=O)NC[C@H]4CCN(CC5CCN(C)CC5)C4)CC3)n2)cc1 [Compound 433, (R)-1-(3-(4-methoxyphenyl)-1,2,4-oxadiazol-5-yl)-N-((1-((1-methylpiperidin-4-yl)methyl)pyrrolidin-3-yl)methyl)piperidine-4-carboxamide] | + (+ >3 and <5)
17 | COc1ccc(-c2noc(N3CCC(C(=O)NC[C@@H]4CCN(CC5CCN(C)CC5)C4)CC3)n2)cc1 [Compound 434, (S)-1-(3-(4-methoxyphenyl)-1,2,4-oxadiazol-5-yl)-N-((1-((1-methylpiperidin-4-yl)methyl)pyrrolidin-3-yl)methyl)piperidine-4-carboxamide] | + (+ >3 and <5)
18 | O=C(NCCCN1CCC(Cc2ccccn2)CC1)C1CCN(c2nc(-c3ccc(OC(F)(F)F)cc3)no2)CC1 [Compound 435, N-(3-(4-(pyridin-2-ylmethyl)piperidin-1-yl)propyl)-1-(3-(4-(trifluoromethoxy)phenyl)-1,2,4-oxadiazol-5-yl)piperidine-4-carboxamide] | +++ (+++ ≥6)
19 | O=C(NCCCN1CCC(Cc2ccccn2)CC1)N1CCN(c2nc(-c3ccc(OC(F)(F)F)cc3)no2)CC1 [Compound 436, N-(3-(4-(pyridin-2-ylmethyl)piperidin-1-yl)propyl)-4-(3-(4-(trifluoromethoxy)phenyl)-1,2,4-oxadiazol-5-yl)piperazine-1-carboxamide] | +++ (+++ ≥6)
20 | O=C(NCCCN1CCC(Cc2ccccc2F)CC1)N1CCN(c2nc(-c3ccc(OC(F)F)cc3)no2)CC1 [Compound 438, 4-(3-(4-(difluoromethoxy)phenyl)-1,2,4-oxadiazol-5-yl)-N-(3-(4-(2-fluorobenzyl)piperidin-1-yl)propyl)piperazine-1-carboxamide] | +++ (+++ ≥6)
21 | O=C(NCC1(CN2CCC(Cc3ccccn3)CC2)CC1)N1CCN(c2nc(-c3ccc(OC(F)(F)F)cc3)no2)CC1 [Compound 450, N-((1-((4-(pyridin-2-ylmethyl)piperidin-1-yl)methyl)cyclopropyl)methyl)-4-(3-(4-(trifluoromethoxy)phenyl)-1,2,4-oxadiazol-5-yl)piperazine-1-carboxamide] | ++ (++ ≥5 and <6)
22 | O=C(NCCCN1CCC(Cc2ccccn2)CC1)C1CCN(c2nc(-c3ccc(OC(F)F)cc3)no2)CC1 [Compound 453, 1-(3-(4-(difluoromethoxy)phenyl)-1,2,4-oxadiazol-5-yl)-N-(3-(4-(pyridin-2-ylmethyl)piperidin-1-yl)propyl)piperidine-4-carboxamide] | +++ (+++ ≥6)
23 | O=C(NCCCN1CCC(Cc2ccccn2)CC1)N1CCN(c2nc(-c3ccc(Cl)cc3)no2)CC1 [Compound 458, 4-(3-(4-chlorophenyl)-1,2,4-oxadiazol-5-yl)-N-(3-(4-(pyridin-2-ylmethyl)piperidin-1-yl)propyl)piperazine-1-carboxamide] | +++ (+++ ≥6)
24 | O=C(NCCCN1CCC(Cc2ccccn2)CC1)N1CCN(c2nc(-c3ccc(C(F)(F)F)cc3)no2)CC1 [Compound 459, N-(3-(4-(pyridin-2-ylmethyl)piperidin-1-yl)propyl)-4-(3-(4-(trifluoromethyl)phenyl)-1,2,4-oxadiazol-5-yl)piperazine-1-carboxamide] | +++ (+++ ≥6)
25 | O=C(NCCCN1CCC(Cc2ccccn2)CC1)N1CCN(c2nc(-c3ccc(C(F)F)cc3)no2)CC1 [Compound 460, 4-(3-(4-(difluoromethyl)phenyl)-1,2,4-oxadiazol-5-yl)-N-(3-(4-(pyridin-2-ylmethyl)piperidin-1-yl)propyl)piperazine-1-carboxamide] | +++ (+++ ≥6)
26 | Cc1ccc(CN2CCC(CNC(=O)N3CCN(c4nc(-c5ccc(OCCO)cc5)no4)CC3)C2)cc1 (stereo not shown) [Compound 462, 4-(3-(4-(2-hydroxyethoxy)phenyl)-1,2,4-oxadiazol-5-yl)-N-((1-(4-methylbenzyl)pyrrolidin-3-yl)methyl)piperazine-1-carboxamide] | ++ (++ ≥5 and <6)
27 | Cc1ccc(CN2CCC(CNC(=O)C3CCN(c4nc(-c5ccc(OCCO)cc5)no4)CC3)C2)cc1 (stereo not shown) [Compound 463, 1-(3-(4-(2-hydroxyethoxy)phenyl)-1,2,4-oxadiazol-5-yl)-N-((1-(4-methylbenzyl)pyrrolidin-3-yl)methyl)piperidine-4-carboxamide] | + (+ >3 and <5)
28 | COc1ccc(-c2noc(N3CCC(C(=O)NCC4CCN(C[C@@H]5CCCN(C)C5)C4)CC3)n2)cc1 (stereo partly drawn) [Compound 464, 1-(3-(4-methoxyphenyl)-1,2,4-oxadiazol-5-yl)-N-((1-(((R)-1-methylpiperidin-3-yl)methyl)pyrrolidin-3-yl)methyl)piperidine-4-carboxamide] | + (+ >3 and <5)
